Patent publication US9981963B2, “3-(1H-pyrazol-4-yl)-1H-pyrrolo[2,3-c]pyridine derivatives as NIK inhibitors” (Janssen Pharmaceutica NV, priority 2013, dated 2018)

Assays:
[1] = tested on: P-IKKα levels in L363 cells; experiment: Biological Assay B: effect of compounds on P-IKKα levels in L363 cells; assay type: cell-based; settings: Homo sapiens, L-363; L363 cells with BAFF, 2 hr treatment; averaged values; read-out: IKKα Cellular IC50
Method: Effect of Compounds on P-IKKα Levels in L363 Cells
All compounds tested were dissolved in DMSO and further dilutions were made in culture medium. Final DMSO concentration was 1% (v/v) in cell assays. The human L363 cells (ATCC) were cultured in RPMI 1640 medium supplemented with GlutaMax and 10% fetal calf serum (PAA). Cells were routinely maintained at densities of 0.2×10^6 cells per ml-1×10^6 cells per ml at 37° C. in a humidified 5% CO2 atmosphere. Cells were passaged twice a week splitting back to obtain the low density. Cells were seeded in 96 well plates (Nunc 167008) at 2×10^6 per ml media in a volume of 75 μl per well plus 25 μl 1 μg/ml recombinant human B-cell activating factor (BAFF/BLyS/TNFSF13B). Seeded cells were incubated at 37° C. in a humidified 5% CO2 atmosphere for 24 hr. Drugs and/or solvents were added (20 μl) to a final volume of 120 μl. Following 2 hr treatment plates were removed from the incubator and cell lysis was achieved by the addition of 30 μl 5× lysis buffer followed by shaking on a plate shaker at 4° C. for 10 min. At the end of this incubation lysed cells were centrifuged at 800×g for 20 min at 4° C. and the lysate was assessed for P-IKKα levels by sandwich immuno-assay carried out in anti-rabbit antibody coated Mesoscale plates. Within an experiment, the results for each treatment were the mean of 2 replicate wells. For initial screening purposes, compounds were tested using an 8 point dilution curve (serial 1:3 dilutions). For each experiment, controls (containing MG132 and BAFF but no test drug) and a blank incubation (containing MG132 and BAFF and 10 μM ADS125117, a test concentration known to give full inhibition) were run in parallel. The blank incubation value was subtracted from all control and sample values. To determine the IC50 a sigmoidal curve was fitted to the plot of % inhibition of control P-IKKα levels versus Log10 compound concentration.

[2] = tested on: LP-1 cells; experiment: Biological Assay C: antiproliferative activity on LP-1 cells (CellTiter-Glo); assay type: cell-based; settings: Homo sapiens, 72 hr of treatment, averaged values
Method: (§1) Determination of Antiproliferative Activity on LP-1, L-363 and JJN-3 Cells
(§2) All compounds tested were dissolved in DMSO and further dilutions were made in culture medium. Final DMSO concentration was 0.3% (v/v) in cell proliferation assays. Viability was assessed using CellTiter-Glo cell viability assay kit (Promega). The human LP-1, L-363 and JJN-3 cells (DSMZ) were cultured in RPMI 1640 medium supplemented with 2 mM L-glutamine, and 10% fetal calf serum (PAA). Cells were routinely kept as suspension cells at 37° C. in a humidified 5% CO2 atmosphere. Cells were passaged at a seeding density of 0.2×10^6/ml twice a week. Cells were seeded in black tissue culture treated 96-well plates (Perkin Elmer). Densities used for plating ranged from 2,000 to 6,000 cells per well in a total volume of 75 μl medium. After twenty four hours, drugs and/or solvents were added (25 μl) to a final volume of 100 μl. Following 72 hr of treatment plates were removed from the incubator and allowed to equilibrate to room temperature for approx 10 min. 100 μl CellTiter-Glo reagent was added to each well that was then covered (Perkin Elmer Topseal) and shaken on plate shaker for 10 min. Luminescence was measured on a HTS Topcount (Perkin Elmer). Within an experiment, the results for each treatment were the mean of 2 replicate wells. For initial screening purposes, compounds were tested using a 9 point dilution curve (serial 1:3 dilutions). For each experiment, controls (containing no drug) and a blank incubation (containing cells read at the time of compound addition) were run in parallel. The blank value was subtracted from all control and sample values. For each sample, the mean value for cell growth (in relative light units) was expressed as a percentage of the mean value for cell growth of the control.

[3] = tested on: JJN-3 cells; experiment: Biological Assay C: antiproliferative activity on JJN-3 cells (CellTiter-Glo); assay type: cell-based; settings: Homo sapiens, 72 hr of treatment, averaged values
Method: as §1, §2

[4] = target: T1, Recombinant Human NF-kappaB-inducing Kinase (NIK/MAP3K14) (Homo sapiens (Human), UniProt Q99558); experiment: Biological Assay A2: inhibition of auto-phosphorylation of recombinant human NIK/MAP3K14 (AlphaScreen); assay type: biochemical; settings: 25 microM ATP, 0.2 nM GST-tagged NIK/MAP3K14, 1 h at 25° C., averaged values, read-out: Alpha-Screen IC50
Method: Inhibition of Auto-phosphorylation of Recombinant Human NF-kappaB-inducing Kinase (NIK/MAP3K14) Activity (AlphaScreen®)
NIK/MAP3K14 auto-phosphorylation activity was measured using the AlphaScreen® (αscreen) format (Perkin Elmer). All compounds tested were dissolved in dimethyl sulfoxide (DMSO) and further dilutions were made in assay buffer. Final DMSO concentration was 1% (v/v) in assays. Assay buffer was 50 mM Tris pH 7.5 containing 1 mM EGTA (ethylene glycol tetraacetic acid), 1 mM DTT (dithiothreitol), 0.1 mM Na3VO4, 5 mM MgCl2, 0.01% Tween® 20. Assays were carried out in 384 well Alphaplates (Perkin Elmer). Incubations consisted of compound, 25 microM Adenosine-5′-triphosphate (ATP), and 0.2 nM NIK/MAP3K14. Incubations were initiated by addition of GST-tagged NIK/MAP3K14 enzyme, carried out for 1 h at 25° C. and terminated by addition of stop buffer containing anti-phospho-IKK Ser176/180 antibody. Protein A Acceptor and Glutathione-Donor beads were added before reading using an EnVision® Multilabel Plate Reader (Perkin Elmer). Signal obtained in the wells containing blank samples was subtracted from all other wells and IC50's were determined by fitting a sigmoidal curve to % inhibition of control versus Log10 compound concentration.

[5] = tested on: L-363 cells; experiment: Biological Assay C: antiproliferative activity on L-363 cells (CellTiter-Glo); assay type: cell-based; settings: Homo sapiens, 72 hr of treatment, averaged values
Method: as §1, §2

[6] = target: T1, Recombinant Human NF-kappaB-inducing Kinase (NIK/MAP3K14); experiment: Biological Assay A: inhibition of recombinant human NIK/MAP3K14 activity (MSD, MBP substrate); settings: 25 μM ATP, 10 nM NIK/MAP3K14, 1 h at 25° C.; averaged over all measurements on all batches; read-out: Biochemical (MSD MBP) IC50
Method: Inhibition of Recombinant Human NF-kappaB-inducing Kinase (NIK/MAP3K14) Activity
Assay buffer was 50 mM Tris pH 7.5 containing 1 mM EGTA (ethylene glycol tetraacetic acid), 1 mM DTT (dithiothreitol), 0.1 mM Na3VO4, 5 mM MgCl2, 0.01% Tween® 20. Assays were carried out in 384 well Mesoscale high binding plates which had been coated with myelin basic protein (MBP) and blocked with bovine serum albumin to prevent non-specific protein binding. All compounds tested were dissolved in dimethyl sulfoxide (DMSO) and further dilutions were made in assay buffer. Final DMSO concentration was 1% (v/v) in assays. Incubations consisted of compound (1% DMSO in control and blank wells), 25 μM Adenosine-5′-triphosphate (ATP), and 10 nM NIK/MAP3K14 substituting enzyme with buffer in the blank wells. Incubations were carried out for 1 h at 25° C. and were followed by washing and sequential incubation with rabbit anti-phospho-MBP and anti-rabbit Ig Sulfotag antibody before reading bound Sulfotag on a Mesoscale Discovery. Signal obtained in the wells containing blank samples was subtracted from all other wells and IC50's were determined by fitting a sigmoidal curve to % inhibition of control versus Log10 compound concentration.

T1 sequence (Q99558 whole entry): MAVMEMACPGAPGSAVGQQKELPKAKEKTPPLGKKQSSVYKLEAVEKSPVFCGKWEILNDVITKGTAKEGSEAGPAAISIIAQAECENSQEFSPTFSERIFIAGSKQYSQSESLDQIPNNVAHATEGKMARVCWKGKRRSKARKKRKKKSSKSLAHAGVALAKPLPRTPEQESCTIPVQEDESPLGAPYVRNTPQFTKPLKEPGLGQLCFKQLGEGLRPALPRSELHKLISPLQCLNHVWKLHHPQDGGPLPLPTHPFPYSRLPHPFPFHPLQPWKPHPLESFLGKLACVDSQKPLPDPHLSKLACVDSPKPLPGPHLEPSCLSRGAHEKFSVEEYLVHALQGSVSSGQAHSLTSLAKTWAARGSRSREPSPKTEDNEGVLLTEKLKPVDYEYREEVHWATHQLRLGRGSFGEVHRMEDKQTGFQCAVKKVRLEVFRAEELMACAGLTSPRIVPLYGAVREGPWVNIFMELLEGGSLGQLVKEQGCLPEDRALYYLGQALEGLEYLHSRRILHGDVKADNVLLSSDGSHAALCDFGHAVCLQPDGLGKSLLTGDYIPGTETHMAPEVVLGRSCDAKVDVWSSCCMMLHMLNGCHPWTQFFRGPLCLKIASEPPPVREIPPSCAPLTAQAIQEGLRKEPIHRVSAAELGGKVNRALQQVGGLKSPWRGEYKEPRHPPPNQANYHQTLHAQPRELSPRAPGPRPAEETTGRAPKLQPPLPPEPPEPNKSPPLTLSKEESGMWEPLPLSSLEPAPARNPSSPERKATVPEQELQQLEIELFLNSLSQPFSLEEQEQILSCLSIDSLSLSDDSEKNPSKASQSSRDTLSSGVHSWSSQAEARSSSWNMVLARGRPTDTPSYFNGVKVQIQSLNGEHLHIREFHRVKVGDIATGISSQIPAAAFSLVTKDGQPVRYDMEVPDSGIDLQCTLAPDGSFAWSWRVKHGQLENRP

| Compound | IC50 [1] | IC50 [4] | IC50 [6] | EC50 [2] | EC50 [3] | EC50 [5] |
| --- | --- | --- | --- | --- | --- | --- |
| COCCn1cc(-c2cn[nH]c2)c2cc(C#CC(C)(C)O)ncc21 [Compound 16] | 523 nM | 99 nM | 92 nM | 20400 nM | 4050 nM | 3140 nM |
| CC(C)(O)C#Cc1cc2c(-c3c[nH]nc3C#N)cn(CC(C)(C)O)c2cn1 [Compound 32] | 1010 nM | 44 nM | 68 nM | > 30000 nM | 5670 nM | 22600 nM |
| CC(C)(O)C#Cc1cc2c(-c3cn[nH]c3)c[nH]c2cn1 [Compound 1] | 736 nM | 53 nM | 60 nM | > 30000 nM | 3340 nM | 6980 nM |
| OC1(C#Cc2cc3c(-c4cn[nH]c4)c[nH]c3cn2)CCCC1 [Compound 6] | 1120 nM | 26 nM | 19 nM | > 30000 nM | 6880 nM | 10700 nM |
| CC(O)(C#Cc1cc2c(-c3cn[nH]c3)c[nH]c2cn1)c1nccs1 (stereo not drawn) [Compound 7] | 882 nM | 9 nM | 9 nM | > 30000 nM | > 30000 nM | 5390 nM |
| CC(C)(O)C#Cc1cc2c(-c3cn[nH]c3)cn(Cc3ccccc3)c2cn1 [Compound 22] | 1770 nM | 232 nM | 224 nM | 5230 nM | 6080 nM | 5530 nM |
| CN1CCC(n2cc(-c3cn[nH]c3)c3cc(C#CC(C)(C)O)ncc32)CC1 [Compound 19] | 602 nM | 98 nM | 65 nM | 11600 nM | 704 nM | 570 nM |
| CC(C)(O)C#Cc1cc2c(-c3cn[nH]c3)cn(CC3CCOC3)c2cn1 (stereo not drawn) [Compound 2] | 829 nM | 83 nM | 129 nM | 21300 nM | 3950 nM | 4340 nM |
| CC(C)(O)C#Cc1cc2c(-c3cn[nH]c3)cn(S(C)(=O)=O)c2cn1 [Compound 25] | 460 nM | 55 nM | 14 nM | 4980 nM | 1900 nM | 2260 nM |

Compounds with a lower IC50 [1], results first:

| IC50 [1] | IC50 [4] | IC50 [6] | Compound | EC50 [2] | EC50 [3] | EC50 [5] |
| --- | --- | --- | --- | --- | --- | --- |
| 149 nM | 23 nM | 29 nM | CCn1cc(-c2c[nH]nc2C)c2cc(C#CC(C)(C)O)ncc21 [Compound 30] | 8230 nM | 1690 nM | 2410 nM |
| 210 nM | 11 nM | 28 nM | Cn1cc(-c2cn[nH]c2)c2cc(C#CC(C)(C)O)ncc21 [Compound 4] | 4720 nM | 1150 nM | 1030 nM |
| 113 nM | 23 nM | 9 nM | CCn1cc(-c2cn[nH]c2)c2cc(C#CC3(O)CCCC3)ncc21 [Compound 10] | 5070 nM | 1210 nM | 3180 nM |
| 132 nM | 108 nM | 18 nM | CC(C)(O)C#Cc1cc2c(-c3cn[nH]c3)cn(CC(C)(C)O)c2cn1 [Compound 14] | 12100 nM | 1400 nM | 1330 nM |
| 167 nM | 41 nM | 45 nM | COCCCn1cc(-c2cn[nH]c2)c2cc(C#CC(C)(C)O)ncc21 [Compound 18] | 6820 nM | 1870 nM | 2540 nM |
| 242 nM | 17 nM | 14 nM | OCCn1cc(-c2cn[nH]c2)c2cc(C#CC3(O)CCCC3)ncc21 [Compound 13] | > 30000 nM | 23800 nM | 11000 nM |
| 406 nM | 7 nM | 21 nM | Cn1cc(-c2cn[nH]c2)c2cc(C#CC3(O)CCCC3)ncc21 [Compound 8] | 9540 nM | 3330 nM | 5860 nM |
| 173 nM | 28 nM | 58 nM | CCn1cc(-c2c[nH]nc2N)c2cc(C#CC(C)(C)O)ncc21 [Compound 3] | 7240 nM | 2370 nM | 4040 nM |
| 302 nM | 43 nM | 57 nM | CCCC(C)n1cc(-c2cn[nH]c2)c2cc(C#CC(C)(C)O)ncc21 (stereo not drawn) [Compound 23] | 1080 nM | 848 nM | 625 nM |
| 20 nM | 21 nM | 6 nM | CC(C)n1cc(-c2cn[nH]c2)c2cc(C#CC(C)(C)O)ncc21 [Compound 11] | 916 nM | 258 nM | 283 nM |
| 191 nM | 65 nM | 48 nM | CCC(CC)n1cc(-c2cn[nH]c2)c2cc(C#CC(C)(C)O)ncc21 [Compound 24] | 647 nM | 744 nM | 519 nM |
| 185 nM | 22 nM | 47 nM | CC(C)(O)C#Cc1cc2c(-c3cn[nH]c3)cn(CCO)c2cn1 [Compound 12] | 8500 nM | 1500 nM | 2450 nM |
| 119 nM | 25 nM | 55 nM | CC(C)Cn1cc(-c2cn[nH]c2)c2cc(C#CC(C)(C)O)ncc21 [Compound 21] | 1120 nM | 629 nM | 427 nM |
